Article PMC10557102 (Pharmacology Research & Perspectives, 2023)

Assays:
CYP2C8 [1] = molecular target: T1, CYP2C8 (Homo sapiens, UniProt P10632); test: Competitive; assay type: in vitro ADME
T1 sequence (P10632 1-490): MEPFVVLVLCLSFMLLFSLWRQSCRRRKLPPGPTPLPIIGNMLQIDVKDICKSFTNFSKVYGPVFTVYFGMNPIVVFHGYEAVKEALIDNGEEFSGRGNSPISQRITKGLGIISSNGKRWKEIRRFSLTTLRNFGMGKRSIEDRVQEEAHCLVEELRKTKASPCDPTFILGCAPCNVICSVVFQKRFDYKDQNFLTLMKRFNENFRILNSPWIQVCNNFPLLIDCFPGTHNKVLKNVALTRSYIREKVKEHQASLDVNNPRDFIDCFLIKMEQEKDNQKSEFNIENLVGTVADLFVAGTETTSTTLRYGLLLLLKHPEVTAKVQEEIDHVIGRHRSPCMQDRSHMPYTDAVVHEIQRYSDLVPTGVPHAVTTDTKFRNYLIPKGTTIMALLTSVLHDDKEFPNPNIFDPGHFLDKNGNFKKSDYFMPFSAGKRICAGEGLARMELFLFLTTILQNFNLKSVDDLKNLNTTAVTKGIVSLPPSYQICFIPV

CYP2D6 = CYP2D6 (Homo sapiens, UniProt P10635); test: Competitive; assay type: in vitro ADME
CYP2D6, sequence (P10635 whole entry): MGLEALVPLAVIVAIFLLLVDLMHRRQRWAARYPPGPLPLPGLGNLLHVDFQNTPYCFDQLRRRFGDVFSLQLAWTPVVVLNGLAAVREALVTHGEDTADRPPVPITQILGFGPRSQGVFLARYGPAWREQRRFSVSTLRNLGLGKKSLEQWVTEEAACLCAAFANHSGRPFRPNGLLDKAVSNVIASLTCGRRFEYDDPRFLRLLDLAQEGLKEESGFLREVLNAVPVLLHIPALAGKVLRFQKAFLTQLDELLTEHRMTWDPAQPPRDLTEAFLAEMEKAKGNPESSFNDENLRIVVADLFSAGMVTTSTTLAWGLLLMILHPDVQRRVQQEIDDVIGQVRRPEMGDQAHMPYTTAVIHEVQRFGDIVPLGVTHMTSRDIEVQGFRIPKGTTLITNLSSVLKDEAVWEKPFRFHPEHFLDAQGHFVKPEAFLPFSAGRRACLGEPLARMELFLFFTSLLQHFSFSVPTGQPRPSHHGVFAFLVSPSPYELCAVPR

CYP2C19 = CYP2C19 (Homo sapiens, UniProt P33261); test: biochemical; assay type: in vitro ADME
CYP2C19, sequence (P33261 whole entry): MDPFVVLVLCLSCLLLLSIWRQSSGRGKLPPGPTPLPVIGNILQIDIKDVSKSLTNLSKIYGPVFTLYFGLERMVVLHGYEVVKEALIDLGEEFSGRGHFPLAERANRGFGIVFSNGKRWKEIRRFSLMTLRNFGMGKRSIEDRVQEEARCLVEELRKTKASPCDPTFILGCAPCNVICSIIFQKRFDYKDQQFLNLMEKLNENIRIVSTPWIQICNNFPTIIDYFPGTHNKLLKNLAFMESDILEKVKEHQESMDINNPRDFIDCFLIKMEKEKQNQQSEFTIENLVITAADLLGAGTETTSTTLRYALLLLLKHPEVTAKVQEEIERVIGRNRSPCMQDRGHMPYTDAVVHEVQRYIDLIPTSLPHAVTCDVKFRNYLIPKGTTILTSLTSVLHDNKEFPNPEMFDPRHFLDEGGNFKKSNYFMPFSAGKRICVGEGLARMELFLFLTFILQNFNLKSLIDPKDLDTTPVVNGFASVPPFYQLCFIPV

[2] = cited from earlier work
CYP1A2 = molecular target: T2, CYP1A2 (Homo sapiens, UniProt P05177); test: Competitive; assay type: in vitro ADME
T2 sequence (P05177 1-516): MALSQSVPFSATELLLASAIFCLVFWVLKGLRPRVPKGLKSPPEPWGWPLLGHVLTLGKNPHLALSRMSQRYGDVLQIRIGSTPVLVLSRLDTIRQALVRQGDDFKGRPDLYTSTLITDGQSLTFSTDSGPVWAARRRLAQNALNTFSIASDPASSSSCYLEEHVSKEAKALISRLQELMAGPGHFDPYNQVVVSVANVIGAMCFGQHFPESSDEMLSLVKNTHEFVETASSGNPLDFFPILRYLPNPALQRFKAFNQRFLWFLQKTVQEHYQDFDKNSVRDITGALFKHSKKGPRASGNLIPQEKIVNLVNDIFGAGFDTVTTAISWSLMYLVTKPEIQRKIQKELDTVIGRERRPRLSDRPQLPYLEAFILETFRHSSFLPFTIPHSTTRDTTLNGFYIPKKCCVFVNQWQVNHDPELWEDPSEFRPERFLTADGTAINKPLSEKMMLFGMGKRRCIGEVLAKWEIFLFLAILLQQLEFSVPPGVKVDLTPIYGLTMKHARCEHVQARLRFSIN

CYP2A6 = molecular target: T3, CYP2A6 (Homo sapiens, UniProt P11509); test: Competitive; assay type: in vitro ADME
T3 sequence (P11509 1-494): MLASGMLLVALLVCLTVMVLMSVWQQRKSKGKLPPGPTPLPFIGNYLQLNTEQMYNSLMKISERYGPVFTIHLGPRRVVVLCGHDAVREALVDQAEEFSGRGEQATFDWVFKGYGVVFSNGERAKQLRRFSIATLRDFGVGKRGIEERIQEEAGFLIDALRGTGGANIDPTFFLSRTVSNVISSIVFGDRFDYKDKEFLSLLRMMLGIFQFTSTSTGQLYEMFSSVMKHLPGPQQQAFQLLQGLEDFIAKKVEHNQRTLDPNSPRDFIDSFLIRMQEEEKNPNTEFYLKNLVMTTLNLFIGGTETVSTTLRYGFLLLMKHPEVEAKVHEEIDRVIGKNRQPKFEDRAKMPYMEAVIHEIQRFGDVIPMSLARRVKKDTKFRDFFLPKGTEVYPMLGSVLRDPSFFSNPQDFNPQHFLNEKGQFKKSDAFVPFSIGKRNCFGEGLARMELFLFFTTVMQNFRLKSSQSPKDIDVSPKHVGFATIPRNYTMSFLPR

CYP2C8 [3] = molecular target: T1, CYP2C8; test: Time-dependent; assay type: in vitro ADME; conditions: 30 min pre‐incubation with/without NADPH; paclitaxel 6α‐hydroxylation
CYP2B6 = molecular target: T4, CYP2B6 (Homo sapiens, UniProt P20813); test: Time-dependent; assay type: in vitro ADME; conditions: 30 min pre‐incubation with/without NADPH; bupropion hydroxylation
T4 sequence (P20813 1-491): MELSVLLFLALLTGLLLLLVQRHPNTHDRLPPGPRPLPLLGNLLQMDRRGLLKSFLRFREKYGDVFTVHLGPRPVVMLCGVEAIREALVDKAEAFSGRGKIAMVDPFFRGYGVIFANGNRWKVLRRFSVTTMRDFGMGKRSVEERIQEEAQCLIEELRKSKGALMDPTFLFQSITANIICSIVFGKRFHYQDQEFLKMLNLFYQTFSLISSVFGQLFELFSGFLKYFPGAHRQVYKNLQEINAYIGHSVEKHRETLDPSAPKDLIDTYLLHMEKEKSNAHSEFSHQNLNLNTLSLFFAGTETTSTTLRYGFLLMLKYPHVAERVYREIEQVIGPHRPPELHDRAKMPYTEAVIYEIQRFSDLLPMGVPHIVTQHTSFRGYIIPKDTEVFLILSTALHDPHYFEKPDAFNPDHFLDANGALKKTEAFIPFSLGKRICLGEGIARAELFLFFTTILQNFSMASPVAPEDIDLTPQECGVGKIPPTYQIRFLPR

CYP3A4 = CYP3A4 (Homo sapiens, UniProt P08684); test: Covalent binding; assay type: in vitro ADME
CYP3A4, sequence (P08684 whole entry): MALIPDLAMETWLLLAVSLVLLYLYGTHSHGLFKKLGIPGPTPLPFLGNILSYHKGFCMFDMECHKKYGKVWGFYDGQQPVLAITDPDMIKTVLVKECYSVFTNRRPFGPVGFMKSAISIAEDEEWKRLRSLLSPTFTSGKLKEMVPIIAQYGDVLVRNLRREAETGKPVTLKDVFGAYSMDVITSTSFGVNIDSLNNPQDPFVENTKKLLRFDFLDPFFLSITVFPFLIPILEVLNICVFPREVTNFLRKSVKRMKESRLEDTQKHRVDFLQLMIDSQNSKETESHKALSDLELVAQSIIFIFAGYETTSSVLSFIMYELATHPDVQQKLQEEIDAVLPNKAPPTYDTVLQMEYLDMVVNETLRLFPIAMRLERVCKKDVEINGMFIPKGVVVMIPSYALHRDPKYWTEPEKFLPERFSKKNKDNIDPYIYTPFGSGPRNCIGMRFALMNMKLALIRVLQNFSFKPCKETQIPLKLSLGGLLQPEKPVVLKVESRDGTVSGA

CYP2C9 = CYP2C9 (Homo sapiens, UniProt P11712); test: Covalent binding; assay type: in vitro ADME
CYP2C9, sequence (P11712 whole entry): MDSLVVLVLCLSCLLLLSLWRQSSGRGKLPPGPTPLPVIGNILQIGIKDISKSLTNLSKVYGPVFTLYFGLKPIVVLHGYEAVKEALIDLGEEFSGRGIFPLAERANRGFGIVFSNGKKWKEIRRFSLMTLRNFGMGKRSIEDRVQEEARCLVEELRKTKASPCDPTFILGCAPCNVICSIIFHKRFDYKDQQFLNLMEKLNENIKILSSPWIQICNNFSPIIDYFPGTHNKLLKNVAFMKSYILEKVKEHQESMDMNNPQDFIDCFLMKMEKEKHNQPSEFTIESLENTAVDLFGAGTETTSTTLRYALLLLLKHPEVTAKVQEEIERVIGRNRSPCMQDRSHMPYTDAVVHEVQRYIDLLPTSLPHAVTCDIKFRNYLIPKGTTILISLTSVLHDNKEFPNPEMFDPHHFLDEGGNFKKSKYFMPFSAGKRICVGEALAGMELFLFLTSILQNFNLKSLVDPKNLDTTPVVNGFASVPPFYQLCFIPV

Compound: Cc1ccc(C(=O)N2CCOC[C@H]2Cc2cccc(-n3nccn3)c2)c(-n2nccn2)c1 [nivasorexant]
- IC50 (CYP2C8 [1]): 25 µM
- IC50 (CYP2D6): > 100 µM
- IC50 (CYP2C19): 1600 nM
- apparent mean terminal half‐life (t ½) ([2]; across dose levels, healthy subjects): 3.3 to 6.5 h
- dose proportionality of AUCτ ([2]; multiple oral administration): dose proportional
- dose proportionality of C max ([2]; multiple oral administration): less than dose proportional
- IC50 (CYP1A2): > 100 µM
- IC50 (CYP2A6): > 100 µM
- IC50 shift (CYP2C8 [3]): no effect and none
- IC50 shift (CYP2B6): none
- covalent binding (in words) (CYP3A4): covalent binding
- covalent binding (in words) (CYP2C9): covalent binding
